# Reference: patent US8017350B2, “Glimepiride- and insulin-induced glycosylphosphatidylinositol-specific phospholipase C regulation” (Sanofi-Aventis Deutschland GmbH, priority 2004, dated 2011)
# Columns and labels:
# [1] = target: T1, Lipoprotein lipase (LPL) from bovine milk (Bos taurus, UniProt P11151); experiment: lipoprotein lipase assay (radiolabeled triolein emulsion); type: biochemical; settings: 50 μM
# T1 construct: purchased SigmalAldrich (Deisenhofen, Germany); host or cells: bovine milk
# Experimental: Hormone-sensitive lipase (HSL) and lipoprotein lipase (LPL) were measured using a radiolabeled triolein droplet emulsion as described in “Vertesy et al., (2002) Journal Antibiotics 55:480-494”. Pancreatic lipase (PL) was determined by incubation of 0.25 mmol tributyrin in 2 ml of 5 mM Tris/HCl (pH 6.5), 6 mM sodium taurodeoxycholate, 150 mM NaCl, 1 mM CaCl2 with porcine PL and colipase in the same buffer using a recording pH stat (stirring at 1000 rpm at 25° C.) with the pH adjusted to 6.5. PC-PLC was assayed by incubation of 0.2 ml of 10 mM dipalmitoyllecithin, 0.1 ml of 10 mM SDC and 0.1 ml of 0.03 M CaCl2 with bacterial PC-PLC (in 50 mM Tris/HCl, pH 7.5, 0.1% BSA) for 10 min at 37° C. The reaction was terminated by addition of 0.1 ml of 50% TCA and subsequently of 2.5 ml of […]. After centrifugation (1500×g, 15 min), 0.2-ml portions of the upper methanol/water phase (˜1.33 ml) were removed, supplemented with 0.5 ml of 60% HClO4, then heated at 170° C. for 1 h and finally analyzed for inorganic phosphate. Mammalian PI-PLC was measured by incubation of 0.1 ml of 10 mM PI, 0.1 ml of 0.8% sodium deoxycholate, 0.1% BSA, 0.2 ml of 100 mM sodium borate (pH 7.5) and rat liver PI-PLC for 20 min at 37° C. The reaction was terminated and further processed as described for the PC-PLC. […] Radioactive phosphatidic acid was detected by phosphorimaging. […]
# [2] = tested on: GPI-anchored and acylated signaling proteins (pp59Lyn, Gce1, 5'-Nuc, aP) in DIGs of rat adipocytes; experiment: Redistribution of pp59Lyn, Gce1, 5'-Nuc and aP from hcDIGs to lcDIGs in rat adipocytes; type: cell-based; settings: GPI-2350 50 μM; Tab. 2
# T1 sequence (P11151 29-478): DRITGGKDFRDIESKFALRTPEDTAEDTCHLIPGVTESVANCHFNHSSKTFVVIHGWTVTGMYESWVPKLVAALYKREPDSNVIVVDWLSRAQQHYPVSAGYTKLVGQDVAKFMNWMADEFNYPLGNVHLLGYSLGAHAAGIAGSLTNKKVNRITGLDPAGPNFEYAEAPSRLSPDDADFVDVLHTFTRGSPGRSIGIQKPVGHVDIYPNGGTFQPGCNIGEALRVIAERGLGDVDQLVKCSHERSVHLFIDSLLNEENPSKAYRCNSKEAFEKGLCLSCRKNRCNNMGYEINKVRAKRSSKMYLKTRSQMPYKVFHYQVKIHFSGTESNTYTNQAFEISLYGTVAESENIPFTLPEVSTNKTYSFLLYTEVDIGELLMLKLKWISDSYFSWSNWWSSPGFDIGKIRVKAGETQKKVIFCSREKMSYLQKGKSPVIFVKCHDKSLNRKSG
smiles,measurement,setting,value
"CCCCCCCCCCCCP1(=O)O[C@@H]2[C@H](O)[C@@H](O)[C@H](O)[C@@H](O)[C@@H]2O1 (some centres unmarked) [GPI-2350, myo-inositol-1,2-cyclo-dodecylphosphonic acid]",effect on LPL,[1],not significantly affected
same,"effect on glimepiride-induced redistribution of 5'-Nuc, Gce1 and aP",[2],completely eliminated
